Like-named read-outs stand apart in the source and are kept apart here.
Tests used:
[1] = system: guinea pigs having colitis caused by amylopectine sulfate; assay: Effect on colitis induced by administration of amylopectine sulfate (APS); assay type: in vivo, guinea pig (Hartley strain); settings: 2 weeks; for Symptom: Colitis Incidence: saline group 100%; for Symptom: Area of Ulcer: saline group 120 ± 24
Procedure: Effect on colitis induced by administration of amylopectine sulfate (according to the method reported in J. Gastroenterology, 67, 473-483, 1974 by Marcus, R and Watt)
Sixty male guinea pigs of Hartley strain (body weight: 200 grams) were used. Among them, fifty guinea pigs were given tap water containing 1% amylopectine sulfate ("APS") as drinking water and were bred for four weeks. (APS contains about 15% sulfur.)
The animals in these five groups were administered 1 ml/kg/day of physiological saline solution and 5, 10, 25 and 50 mg/kg/day of compound I for two weeks by oral route. The other ten guinea pigs were untreated controls and were given untreated tap water as drinking water and were bred for four weeks under the same circumstances as those of the experimental groups.
After two weeks, the animals were killed by overinhalation of ether, the large intestines were removed and the degree of colitis was determined by observing the incidence of ulcers and the area of ulcers with a stereoscopic microscope (×10). The results are given in Table 1, and the changes in body weight during the administration of the compound I is given in the drawing.

intestinal bacteria = assay: action on intestinal bacteria, standard test by Japan Antibiotic Association
From the text: As a mechanism for the resulting colitis by administration of APS, the physico-chemical properties of APS must be involved. […] Therefore, there is no contribution of antibacterial activity in the effect of compound I against colitis. In view of the above, it is clear that the effect of the compound I against colitis is due to the direct protection of large intestinal mucosal cells by compound I.

[2] = system: hepatic and renal disorders induced by carbon tetrachloride in rats; assay: Effect on hepatic and renal disorders induced by administration of carbon tetrachloride; assay type: in vivo, rat (Sprague-Dawley strain); settings: after CCl4; for Body Weight: average ± S.E., n=10; for Liver Wt.: saline 10.5 ± 1.9; for BUN: saline 56.6 ± 10.6; for GPT: saline 2206 ± 298; for LDH: saline 22425 ± 9211
Procedure: Effect on hepatic and renal disorders induced by administration of carbon tetrachloride
Five groups of male rats of Sprague-Dawley strain (body weight: 200 grams) were used (ten rats per group). All of these rats were given 4 ml/kg of 50% carbon tetrachloride (used with olive oil) by oral route. After 24 hours, the rats were killed by decapitation, and blood was taken and the liver was isolated therefrom. Previously, the rats were fasted for 18 hours before taking blood therefrom. The blood was subjected to quantitative determination of GOT, GPT, LDH and BUN and the weights of isolated livers were measured.
Compound I was given to the rats of four groups, two to six hours after the administration of carbon tetrachloride (in other words, at the time when hepatic and renal disorders caused by carbon tetrachloride had already appeared) at the dose of 5, 10, 25 or 50 mg/kg by oral route. Physiological saline in an amount of 1 ml/kg/day to the rats of the fifth group. Rats of a sixth group that received no carbon tetrachloride, served as a control, and were also autospied, as above.

erythrocytic membrane = assay: Enhancement of resistance of erythrocytic membrane (hypoosmotic hemolysis); assay type: cell-based, rat (Sprague-Dawley strain); settings: for inhibition at 770 µM / hemolysis at 770 µM: Rattus norvegicus, Erythrocyte, 0.5 h; for inhibition at 770 µM: read-out: Percent Inhibition Ratio (hemolysis); for hemolysis at 770 µM: average of five ± S.E., p < 0.05
Procedure: Enhancement of resistance of erythrocytic membrane
Sprague-Dawley strain rats were treated with heparine and blood samples were obtained therefrom. The blood was centrifuged at 3000 rpm for ten minutes to remove blood plasma and then washed with 10 mM phosphate buffer-physiological saline solution (pH 7) to wash erythrocyte. To each volume of blood required to obtain the erythrocyte, 19 volumes of hypoosmotic solution (containing 10 mM phosphate buffer) was added and an erythrocyte suspension (5% erythrocyte suspension) was prepared. With reference to hemolysis, the absorbancy (O.D.) at 540 nm using distilled water as the hypoosmotic solution so that completely hemolyzed was defined as "100% hemolysis".
An erythrocyte suspension with 0.4%/0.45% hypoosmotic saline solution was incubated at 37° C. for 30 minutes, centrifuged at 3000 rpm for 10 minutes, and the percent hemolysis was calculated from the O.D. of the supernatant liquid.

[3] = Acute toxicity test in mice; assay type: in vivo; settings: mouse, in vivo, read-out: LD50 (95% fiducial limits)
From the text: (§1) The LD50 values of compound I in ddY strain mice (6 weeks of age) and in Sprague-Dawley strain rats (7 weeks of age) are given in Table 4.

ddY strain mice = assay: Acute toxicity test in mice; assay type: in vivo; settings: mice and rats
From the text: as §1

[4] = Acute toxicity test in rats; settings: rat, in vivo, read-out: LD50 (95% fiducial limits)
From the text: as §1

solubility in water = assay type: physicochemical

Nc1nc(N)nc(-c2cc(Cl)ccc2Cl)n1.O=C(O)/C=C\C(=O)O [Compound I, 2,4-diamino-6-(2', 5'-dichlorophenyl)-s-triazine maleate]
Average Intake of APS, after administration of Compound I ([1]; 5 mg/kg/day oral): 0.91 g/kg/2w | Increase in Body Weight (2-4 wks) ([1]; 5 mg/kg/day oral, saline group 2 ± 10, control 110 ± 11): 11 ± 12 g | Symptom: Colitis Incidence ([1]; 5 mg/kg/day oral): 90% | Symptom: Area of Ulcer ([1]; 5 mg/kg/day oral): 65 ± 20 mm^2 | Average Intake of APS, after administration of Compound I ([1]; 10 mg/kg/day oral): 1.12 g/kg/2w | Increase in Body Weight (2-4 wks) ([1]; 10 mg/kg/day oral, saline group 2 ± 10, control 110 ± 11): 26 ± 15 g | Symptom: Colitis Incidence ([1]; 10 mg/kg/day oral): 80% | Symptom: Area of Ulcer ([1]; 10 mg/kg/day oral): 50 ± 24 mm^2 | Average Intake of APS, after administration of Compound I ([1]; 25 mg/kg/day oral): 1.26 g/kg/2w | Increase in Body Weight (2-4 wks) ([1]; 25 mg/kg/day oral, saline group 2 ± 10, p < 0.05): 36 ± 13 g | Symptom: Colitis Incidence ([1]; 25 mg/kg/day oral): 60% | Symptom: Area of Ulcer ([1]; 25 mg/kg/day oral, p < 0.05): 43 ± 15 mm^2 | Average Intake of APS, after administration of Compound I ([1]; 50 mg/kg/day oral): 1.24 g/kg/2w | Increase in Body Weight (2-4 wks) ([1]; 50 mg/kg/day oral, saline group 2 ± 10, p < 0.05): 54 ± 10 g | Symptom: Colitis Incidence ([1]; 50 mg/kg/day oral): 60% | Symptom: Area of Ulcer ([1]; 50 mg/kg/day oral, p < 0.05): 34 ± 12 mm^2 | effect on body weight of afflicted animals (in words, drawing) ([1]; oral): greatly increases the body weight of the afflicted animals | effect on colitis (in words) ([1]; oral): improvement in the colitis followed by increase in body weight was observed | intake of APS (in words) ([1]; oral): the intake of APS did not decrease, but rather increased | action on intestinal bacteria (intestinal bacteria): does not exhibit any action on intestinal bacteria | Body Weight ([2]; 5 mg/kg oral): 198.6 ± 0.5 g | Liver Wt. ([2]; 5 mg/kg oral): 9.6 ± 2.2 g | BUN ([2]; 5 mg/kg oral): 42.0 ± 9.8 mg/dL | GPT ([2]; 5 mg/kg oral): 1920 ± 306 Karmen Unit | LDH ([2]; 5 mg/kg oral): 16341 ± 9009 Wroblewski Unit | GOT ([2]; 5 mg/kg oral, saline printed 3,91 ± 361): 2215 ± 250 Karmen Unit | Body Weight ([2]; 10 mg/kg oral): 199.1 ± 0.7 g | GOT ([2]; 10 mg/kg oral, p < 0.05 vs saline): 1822 ± 249 Karmen Unit | Liver Wt. ([2]; 10 mg/kg oral): 9.5 ± 2.5 g | BUN ([2]; 10 mg/kg oral): 34.6 ± 7.2 mg/dL | GPT ([2]; 10 mg/kg oral): 1566 ± 354 Karmen Unit | LDH ([2]; 10 mg/kg oral): 12209 ± 6214 Wroblewski Unit | Body Weight ([2]; 25 mg/kg oral): 200.6 ± 0.6 g | Liver Wt. ([2]; 25 mg/kg oral): 8.3 ± 1.5 g | BUN ([2]; 25 mg/kg oral): 31.4 ± 8.8 mg/dL | GPT ([2]; 25 mg/kg oral, p < 0.05): 1012 ± 261 Karmen Unit | LDH ([2]; 25 mg/kg oral): 8054 ± 3666 Wroblewski Unit | Body Weight ([2]; 50 mg/kg oral): 198.6 ± 0.8 g | GOT ([2]; 50 mg/kg oral, p < 0.05 vs saline): 1339 ± 211 Karmen Unit | Liver Wt. ([2]; 50 mg/kg oral): 7.4 ± 2.0 g | BUN ([2]; 50 mg/kg oral, p < 0.05): 29.7 ± 3.5 mg/dL | GPT ([2]; 50 mg/kg oral, p < 0.05): 805 ± 134 Karmen Unit | LDH ([2]; 50 mg/kg oral, p < 0.05): 5003 ± 1642 Wroblewski Unit | effect on increase of BUN (in words) ([2]; oral): inhibited the increase of BUN | effect on liver weight, GOT, GPT and LDH (in words) ([2]; oral): depressed the increase of liver weight and the increase in GOT, GPT, and LDH | inhibition of hemolysis (in words) (erythrocytic membrane; 0.77 mM, 0.4 and 0.45% saline): shows inhibition of hemolysis | protective action to erythrocyte membranes (in words) (erythrocytic membrane; 0.77 mM, 0.4 and 0.45% saline): exhibits protective action to erythrocyte membranes | inhibition at 770 µM (erythrocytic membrane; 0.77 mM, 0.4% saline solution): 35.5% | inhibition at 770 µM (erythrocytic membrane; 0.77 mM, 0.45% saline solution): 62.2% | hemolysis at 770 µM (erythrocytic membrane; read-out: Percent Hemolysis Ratio, 0.77 mM, 0.4% saline solution, control 70.8 ± 0.6): 45.7 ± 1.8% | hemolysis at 770 µM (erythrocytic membrane; read-out: Percent Hemolysis Ratio, 0.77 mM, 0.45% saline solution, control 27.5 ± 2.1): 10.4 ± 1.1% | LD50 ([3]; ip, mice female, intraperitoneal): 1010 mg/kg | LD50 ([3]; ip, mice male, intraperitoneal): 775 mg/kg | LD50 ([3]; po, mice female, oral): 5700 mg/kg | LD50 ([3]; po, mice male, oral): 6040 mg/kg | LD50 ([3]; sc, mice female, subcutaneous): 3220 mg/kg | LD50 ([3]; sc, mice male, subcutaneous): 2840 mg/kg | safety (LD50 compared with effective dose, in words) (ddY strain mice): highly safe | LD50 ([4]; ip, rats female, intraperitoneal): 789 mg/kg | LD50 ([4]; ip, rats male, intraperitoneal): 802 mg/kg | LD50 ([4]; po, rats female, oral): 2920 mg/kg | LD50 ([4]; po, rats male, oral): 2900 mg/kg | LD50 ([4]; sc, rats female, subcutaneous): 1520 mg/kg | LD50 ([4]; sc, rats male, subcutaneous): 1600 mg/kg | solubility at 0.5 h (solubility in water; saturated solution in water): 770 µM | solubility in water (in words) (solubility in water; water): hardly soluble in water

Reference: patent US4487770A, “Treatment of diseases of the liver, kidney, colon and rectum” (Nippon Shinyaku Co., Ltd., priority 1981, dated 1984)
